Numbers after ± are expanded uncertainties.
Key:
[1] = xn = mol fraction of the nth substance listed; conditions: 101 kPa, Liquid, Vibrating tube method
[2] = excess molar enthalpy (molar enthalpy of mixing); xn = mol fraction of the nth substance listed; conditions: 291.15 K, 101 kPa, Liquid, Calvet calorimetry
[3] = refractive index (Na D-line) (dimensionless); conditions: 101.33 kPa, Liquid, Standard Abbe refractometry
[4] = Liquid; for mass density: 101 kPa, Vibrating tube method; for vapor or sublimation pressure: Ebulliometric method (Recirculating still)

CCCCC [pentane] + CCCOC(C)=O
mass density [kg/m3], [1]
Conditions	291.15 K	298.15 K
x2 = 0	628.2 ± 0.3	621.4 ± 0.3
x2 = 0.0101	–	623.7 ± 0.4
x2 = 0.0121	631.2 ± 0.4	–
x2 = 0.0346	–	629.8 ± 0.4
x2 = 0.0427	638.8 ± 0.4	–
x2 = 0.0754	–	640 ± 0.4
x2 = 0.078	647.7 ± 0.4	–
x2 = 0.1377	–	655.9 ± 0.4
x2 = 0.1417	664 ± 0.4	–
x2 = 0.1977	–	671.4 ± 0.4
x2 = 0.2048	680.3 ± 0.4	–
x2 = 0.2734	698.2 ± 0.4	–
x2 = 0.283	–	693.6 ± 0.4
x2 = 0.3338	714.1 ± 0.4	–
x2 = 0.3439	–	709.7 ± 0.4
x2 = 0.3934	729.8 ± 0.4	–
x2 = 0.4072	–	726.4 ± 0.4
x2 = 0.4636	748.4 ± 0.4	–
x2 = 0.4881	–	747.7 ± 0.4
x2 = 0.5218	–	756.5 ± 0.4
x2 = 0.5224	763.9 ± 0.4	–
x2 = 0.5876	781.1 ± 0.4	–
x2 = 0.5968	–	776.4 ± 0.4
x2 = 0.6565	799.3 ± 0.4	792.1 ± 0.4
x2 = 0.7085	–	805.9 ± 0.4
x2 = 0.7136	814.4 ± 0.4	–
x2 = 0.7697	829.2 ± 0.4	–
x2 = 0.8277	844.6 ± 0.4	–
x2 = 0.8437	–	841.6 ± 0.4
x2 = 0.8911	861.3 ± 0.4	–
x2 = 0.9205	–	861.8 ± 0.4
x2 = 0.923	869.7 ± 0.4	–

[2]
Conditions	excess molar enthalpy [kcal/mol]
x2 = 0.0667	0.0535 ± 0.0012
x2 = 0.1334	0.097 ± 0.00143
x2 = 0.2047	0.147 ± 0.00167
x2 = 0.2753	0.186 ± 0.00191
x2 = 0.3414	0.2185 ± 0.00191
x2 = 0.4028	0.2361 ± 0.00215
x2 = 0.461	0.2452 ± 0.00215
x2 = 0.5088	0.2464 ± 0.00215
x2 = 0.5257	0.245 ± 0.00215
x2 = 0.5824	0.2326 ± 0.00215
x2 = 0.6434	0.2141 ± 0.00191
x2 = 0.7089	0.188 ± 0.00191
x2 = 0.7812	0.152 ± 0.00167
x2 = 0.8537	0.107 ± 0.00143
x2 = 0.9242	0.0595 ± 0.0012

CCCCCC [hexane] + CCCOC(C)=O
[1], x2 = 0
Conditions	mass density [kg/m3]
291.15 K	661.2 ± 0.3
298.15 K	654.8 ± 0.3
318.15 K	636.7 ± 0.3
328.15 K	627.2 ± 0.3

CCCCCCCC [octane]
Conditions	mass density, 291.15 K [kg/m3]	mass density, 298.15 K [kg/m3]	mass density, 318.15 K [kg/m3]	mass density, 328.15 K [kg/m3]	refractive index, 298.15 K	refractive index, 318.15 K	vapor or sublimation pressure, 398.85 K [kPa]
[3]	–	–	–	–	1.3952 ± 0.0005	1.3855 ± 0.0005	–
[4]	704.1 ± 0.3	698.6 ± 0.3	682.2 ± 0.3	674.1 ± 0.3	–	–	101.32 ± 0.46

CCCCCCC [heptane] + CCCOC(C)=O
[1], x2 = 0
Conditions	mass density [kg/m3]
291.15 K	685.3 ± 0.3
298.15 K	679.5 ± 0.3
318.15 K	662.1 ± 0.3
328.15 K	653.7 ± 0.3

CCCOC(C)=O [propyl ethanoate] + CCCCC
[1], x1 = 1
Conditions	mass density [kg/m3]
291.15 K	889.6 ± 0.2
298.15 K	882.5 ± 0.2

CCCCCCCCC [nonane] + CCCOC(C)=O
[1], x2 = 0
Conditions	mass density [kg/m3]
291.15 K	719.2 ± 0.3
298.15 K	713.9 ± 0.3
318.15 K	698.1 ± 0.3
328.15 K	690.2 ± 0.3

CCCCCCCCCC [decane]
Conditions	mass density, 291.15 K [kg/m3]	mass density, 298.15 K [kg/m3]	mass density, 318.15 K [kg/m3]	mass density, 328.15 K [kg/m3]	refractive index, 298.15 K	refractive index, 318.15 K	vapor or sublimation pressure, 447.27 K [kPa]
[3]	–	–	–	–	1.4096 ± 0.0005	1.4008 ± 0.0005	–
[4]	731.2 ± 0.2	726.2 ± 0.3	710.9 ± 0.3	703.3 ± 0.3	–	–	101.32 ± 0.46

CCCCC [pentane]
Conditions	mass density, 291.15 K [kg/m3]	mass density, 298.15 K [kg/m3]	refractive index, 298.15 K	vapor or sublimation pressure, 309.24 K [kPa]
[3]	–	–	1.3545 ± 0.0005	–
[4]	628.2 ± 0.3	621.4 ± 0.3	–	101.32 ± 0.46

CCCCCCCC [octane] + CCCOC(C)=O
[1], x2 = 0
Conditions	mass density [kg/m3]
291.15 K	704.1 ± 0.3
298.15 K	698.6 ± 0.3
318.15 K	682.2 ± 0.3
328.15 K	674.1 ± 0.3

CCCCCCCCCC [decane] + CCCOC(C)=O
[1], x2 = 0
Conditions	mass density [kg/m3]
291.15 K	731.2 ± 0.2
298.15 K	726.2 ± 0.3
318.15 K	710.9 ± 0.3
328.15 K	703.3 ± 0.3

CCCCCCC [heptane]
Conditions	mass density, 291.15 K [kg/m3]	mass density, 298.15 K [kg/m3]	mass density, 318.15 K [kg/m3]	mass density, 328.15 K [kg/m3]	refractive index, 298.15 K	refractive index, 318.15 K	vapor or sublimation pressure, 371.55 K [kPa]
[3]	–	–	–	–	1.3852 ± 0.0005	1.3748 ± 0.0005	–
[4]	685.3 ± 0.3	679.5 ± 0.3	662.1 ± 0.3	653.7 ± 0.3	–	–	101.32 ± 0.46

CCCCCC [hexane]
Conditions	mass density, 291.15 K [kg/m3]	mass density, 298.15 K [kg/m3]	mass density, 318.15 K [kg/m3]	mass density, 328.15 K [kg/m3]	refractive index, 298.15 K	refractive index, 318.15 K	vapor or sublimation pressure, 341.89 K [kPa]
[3]	–	–	–	–	1.3723 ± 0.0005	1.3615 ± 0.0005	–
[4]	661.2 ± 0.3	654.8 ± 0.3	636.7 ± 0.3	627.2 ± 0.3	–	–	101.32 ± 0.46

CCCOC(C)=O [propyl ethanoate]
Conditions	mass density [kg/m3]	refractive index	vapor or sublimation pressure [kPa]
[3], 298.15 K	–	1.3818 ± 0.0005	–
[3], 318.15 K	–	1.372 ± 0.0005	–
[4], 291.15 K	889.6 ± 0.2	–	–
[4], 298.15 K	882.5 ± 0.2	–	–
[4], 318.15 K	859.8 ± 0.2	–	–
[4], 318.35 K	–	–	12.14 ± 0.04
[4], 322.19 K	–	–	14.43 ± 0.05
[4], 325.87 K	–	–	17.04 ± 0.05
[4], 328.15 K	848.3 ± 0.2	–	–
[4], 328.95 K	–	–	19.43 ± 0.05
[4], 331.59 K	–	–	21.77 ± 0.05
[4], 334.22 K	–	–	24.29 ± 0.05
[4], 336.6 K	–	–	26.79 ± 0.05
[4], 338.75 K	–	–	29.12 ± 0.06
[4], 340.72 K	–	–	31.53 ± 0.06
[4], 342.66 K	–	–	33.96 ± 0.06
[4], 344.52 K	–	–	36.46 ± 0.06
[4], 346.15 K	–	–	38.78 ± 0.06
[4], 347.73 K	–	–	41.14 ± 0.07
[4], 349.35 K	–	–	43.69 ± 0.07
[4], 350.81 K	–	–	46.08 ± 0.07
[4], 352.19 K	–	–	48.41 ± 0.07
[4], 353.57 K	–	–	50.84 ± 0.08
[4], 354.78 K	–	–	53.11 ± 0.08
[4], 356.03 K	–	–	55.48 ± 0.08
[4], 357.29 K	–	–	57.96 ± 0.08
[4], 358.41 K	–	–	60.24 ± 0.08
[4], 359.52 K	–	–	62.59 ± 0.09
[4], 360.63 K	–	–	65 ± 0.09
[4], 361.71 K	–	–	67.41 ± 0.09
[4], 362.73 K	–	–	69.74 ± 0.09
[4], 363.81 K	–	–	72.28 ± 0.1
[4], 364.84 K	–	–	74.8 ± 0.1
[4], 365.86 K	–	–	77.35 ± 0.1
[4], 366.81 K	–	–	79.8 ± 0.1
[4], 367.7 K	–	–	82.11 ± 0.11
[4], 368.62 K	–	–	84.58 ± 0.11
[4], 369.51 K	–	–	87.01 ± 0.11
[4], 370.41 K	–	–	89.57 ± 0.11
[4], 371.18 K	–	–	91.8 ± 0.12
[4], 371.99 K	–	–	94.17 ± 0.12
[4], 372.78 K	–	–	96.55 ± 0.12
[4], 373.55 K	–	–	98.87 ± 0.12
[4], 373.97 K	–	–	100.18 ± 0.12
[4], 374.34 K	–	–	101.32 ± 0.46
[4], 374.52 K	–	–	101.32 ± 0.13
[4], 375.1 K	–	–	103.76 ± 0.14
[4], 375.78 K	–	–	106.19 ± 0.13
[4], 376.51 K	–	–	108.56 ± 0.13
[4], 377.29 K	–	–	111.14 ± 0.14
[4], 377.98 K	–	–	113.47 ± 0.14
[4], 378.69 K	–	–	115.96 ± 0.14
[4], 379.36 K	–	–	118.3 ± 0.14
[4], 380.04 K	–	–	120.71 ± 0.15
[4], 380.74 K	–	–	123.19 ± 0.15
[4], 381.41 K	–	–	125.61 ± 0.15
[4], 382.06 K	–	–	128.01 ± 0.15
[4], 382.71 K	–	–	130.42 ± 0.16
[4], 383.34 K	–	–	132.85 ± 0.16
[4], 384.01 K	–	–	135.42 ± 0.16
[4], 384.55 K	–	–	137.67 ± 0.16
[4], 385.18 K	–	–	140.04 ± 0.17
[4], 385.79 K	–	–	142.47 ± 0.17
[4], 386.36 K	–	–	144.8 ± 0.17
[4], 386.9 K	–	–	147.09 ± 0.17
[4], 387.49 K	–	–	149.51 ± 0.18
[4], 388.06 K	–	–	151.96 ± 0.18
[4], 388.63 K	–	–	154.37 ± 0.18
[4], 389.16 K	–	–	156.68 ± 0.19
[4], 389.68 K	–	–	158.99 ± 0.19
[4], 390.18 K	–	–	161.23 ± 0.19
[4], 390.68 K	–	–	163.46 ± 0.19
[4], 391.22 K	–	–	165.89 ± 0.19
[4], 391.7 K	–	–	168.13 ± 0.2
[4], 392.24 K	–	–	170.62 ± 0.2
[4], 392.73 K	–	–	172.98 ± 0.2
[4], 393.23 K	–	–	175.35 ± 0.2
[4], 393.71 K	–	–	177.64 ± 0.21
[4], 394.16 K	–	–	180.01 ± 0.21
[4], 394.66 K	–	–	182.44 ± 0.21
[4], 395.17 K	–	–	185.03 ± 0.22
[4], 395.67 K	–	–	187.59 ± 0.22
[4], 396.16 K	–	–	190.1 ± 0.22
[4], 396.69 K	–	–	192.76 ± 0.22

CCCCCCCCC [nonane]
Conditions	mass density, 291.15 K [kg/m3]	mass density, 298.15 K [kg/m3]	mass density, 318.15 K [kg/m3]	mass density, 328.15 K [kg/m3]	refractive index, 298.15 K	refractive index, 318.15 K	vapor or sublimation pressure, 423.94 K [kPa]
[3]	–	–	–	–	1.4031 ± 0.0005	1.3938 ± 0.0005	–
[4]	719.2 ± 0.3	713.9 ± 0.3	698.1 ± 0.3	690.2 ± 0.3	–	–	101.32 ± 0.46

— the NIST ThermoML archive (doi:10.1021/je3011979)
